The values that follow come from US10627415B2, “Compositions and methods for diagnosing, monitoring, and treating an autoimmune disease” (BOARD OF TRUSTEES OF MICHIGAN STATE UNIVERSITY, priority 2015, dated 2020).

Test [1] concerns RBCs. The test is described as follows: C-peptide binding to RBCs (Example 1, supernatant subtraction). To be noted: RBCs of individual healthy controls; 20 picomoles human C-peptide, 75 micromolar albumin, 2 hours. It counts as cell-based. The protocol: The amount of C-peptide binding to RBCs obtained from MS patients was compared to controls run on the same day. All samples were handled in an identical manner. Briefly, about 10 mL of blood were drawn from each donor; the RBCs were purified by centrifugation. Next, 20 picomoles of human C-peptide were added to a buffer containing 75 micromolar albumin. RBCs were added to this C-peptide and albumin-containing buffer and allowed to incubate for 2 hours. Next, the samples were centrifuged and the moles of C-peptide remaining in the supernatant are subtracted from the original amount added. This provided a value corresponding to the moles of C-peptide bound to the RBCs. […] Importantly, of the 25 MS patient samples analyzed, the values ranged from 2.7 to 4.8 picomoles of C-peptide bound to the RBCs, with 18 of the 25 above 3.2 picomoles. In comparison, one control was 3.1, another was 2.8; all others were below 2.45. Thus, separation exists between groups—approximately […] of bound C-peptide difference.

In test [2] the test system is RBCs. Briefly: C-peptide binding to RBCs, ELISA of supernatant (Example 2 protocol; hematocrit and storage variations). It counts as cell-based, human. To be noted: for average C-peptide bound to the RBCs: 7% hematocrit, 20 nM C-peptide, 75 μM BSA (0.5%), 2 hours at 37° C. How it is done: All samples were handled in an identical manner. Briefly, about 10 mL of blood was drawn from each donor; the RBCs were purified by centrifugation; and the RBCs were suspended in physiological salt solution (PSS). Then RBCs were combined with PSS (containing bovine serum albumin (BSA) as a C-peptide binding facilitator) and C-peptide to generate a mixture having a 7% hematocrit, 20 nM C-peptide, and 75 μM BSA (0.5%). The mixture was allowed to incubate for 2 hours at 37° C. Next, the samples were centrifuged to separate the cells from solution, the solution was diluted 1:50 with double distilled water, and the amount of C-peptide remaining in the solution was determined by ELISA. This provided a value corresponding to the moles of C-peptide bound to the RBCs. […] Whereas blood from the healthy controls bound an average of 1.99±0.32 pmoles C-peptide, blood from MS patients and OND patients bound averages of 3.51±0.59 pmoles of C-peptide and 2.23±0.51 pmoles of C-peptide, respectively. As shown by p values of less than 0.001, the increase in C-peptide binding relative to healthy controls and OND patients is significant.
Experiments were performed to determine the effect of hematocrit on C-peptide binding to RBCs. The experiment was conducted as described above in Experiment 2, except various hematocrits were tested. […] In general, increase the hematocrit results in a substantially linear increase in C-peptide binding when the RBCs are saturated with C-peptide.
Experiments were performed to determine the stability of the whole blood. The experiment was conducted as described above in Experiment 2, except the blood was stored in citrate tubes at 4° C. over a period of 4 days during the experiment. Only blood from healthy patients was tested.
Experiments were performed to determine the stability of supernatant generated after separating cells from solution as described in Experiment 2. The protocol of Experiment 2 was repeated on blood from healthy patients, but the supernatant was stored at 4° C. for from 1 to 3 days prior to determining C-peptide binding by the RBCs.
Experiments were performed to determine the stability of supernatant generated after separating cells from solution as described in Experiment 2. The protocol of Experiment 2 was repeated on blood from healthy patients, but the supernatant was stored at −20° C. from 0 (day of draw) to 6 weeks prior to determining C-peptide binding by the RBCs.
On the technique in general: In an ELISA, binding on a coated surface is turned into a signal by an enzyme label.

In test [3] the test system is bovine pulmonary artery endothelial cells. The test is described as follows: C-peptide binding to endothelial cells. It counts as cell-based. Particulars: 1 hour at 37° C., 10 nM Zn2+ and C-peptide in DMEM containing serum. How it is done: Additional experiments were performed to determine whether a C-peptide facilitator can facilitate binding of C-peptide to cells expressing Glut1 other than RBCs. Endothelial cells (bovine pulmonary artery endothelial cells) were grown to confluency on 12-well tissue culture plates. When the cell reached confluency, they were incubated in Dulbecco's Modified Eagle Medium (DMEM) containing serum for 24 hours. Following incubation, the cells were washed and incubated for 1 hour at 37° C. in the presence of 10 nM Zn^2+ and C-peptide in DMEM containing serum. The endothelial cells were determined to have bound 2.0±0.1 attomoles of C-peptide per endothelial cell.

Test [4] concerns Neutrophils from healthy control patients. Briefly: C-peptide binding to neutrophils. The format is cell-based, human. To be noted: 20 nM C-peptide, 1 hour at 37° C. The protocol:
Neutrophils from healthy control patients were also tested. The neutrophils were isolated using techniques known in the art. Briefly, blood was drawn into a heparin-coated vacutainer. An equal volume of 3% Dextran was added to drawn whole blood in sterile 50 mL tubes. After inverting, the tubes were set upright for 30 minutes at room temperature to generate a plurality of layers. The top layer was aspirated and transferred to a new 50 mL tube and centrifuged at 500 g for 10 minutes at 4° C. The resulting top layer was discarded. The resulting pellet was resuspended in 10 mL 0.9% saline. After pooling suspensions together in a single tube, it was underplayed with 10 mL of hypaqu-ficoll and centrifuged at 800 g for 15 minutes at room temperature. The resulting liquid band was removed and the remainder was resuspended in 20 mL 0.2% saline and mixed. 20 mL of 1.6% saline was then added to the suspension and it was centrifuged at 250 g for 6 minutes at 4° C. The supernatant was removed and the pellet was suspended in PBS for use in experiments. The cells were counted and then incubated with 20 nM C-peptide for 1 hour at 37° C. to generate an incubated sample. The incubated sample was centrifuged and the amount of C-peptide in the supernatant was determined by ELISA. The neutrophils were determined to have bound 2.68 attomoles of C-peptide per neutrophil.

Several values for one entry are separate records, joined by “and”; a condition that tells them apart may be missing. Equal entries are not always repeated.

“C-peptide (EAEDLQVGQVELGGGPGAGSLQPLALEGSLQ; listed as Homo sapiens) [approximately 30 amino acid polypeptide that connects the A and B chain of mature insulin within the proinsulin molecule]”: the “C-peptide bound to the RBCs” value in test [1] was 3.1 and 2.8 and below 2.45. Also, the figures for the “average C-peptide bound to the RBCs” value in test [2] (MS patients), in test [2] (OND patients) and in test [2] (healthy controls) were 3.51 ± 0.59 pmol, 2.23 ± 0.51 pmol and 1.99 ± 0.32 pmol, respectively. Also, the C-peptide binding was determined as 2.38 pmol in test [2] (healthy blood stored in citrate tubes at 4° C., day 1); 2.23 pmol in test [2] (healthy blood stored in citrate tubes at 4° C., day 2); 2.14 pmol in test [2] (healthy blood stored in citrate tubes at 4° C., day 3); 1.83 pmol in test [2] (healthy blood stored in citrate tubes at 4° C., day 4); 2.23 pmol in test [2] (healthy blood, supernatant stored at 4° C., day 1); 2.17 pmol in test [2] (healthy blood, supernatant stored at 4° C., day 2). Further, the C-peptide binding was 2.20 pmol in test [2] (healthy blood, supernatant stored at 4° C., day 3); 2.45 pmol in test [2] (healthy blood, supernatant stored at −20° C., week 0 (day of draw)); 2.48 pmol in test [2] (healthy blood, supernatant stored at −20° C., week 1); 2.30 pmol in test [2] (healthy blood, supernatant stored at −20° C., week 3); 2.34 pmol in test [2] (healthy blood, supernatant stored at −20° C., week 6); “about 1500 C-peptide molecules per cell” in test [2] (healthy individuals that do not have MS). Besides, the figures for the “C-peptide binding by RBCs, Control” value in test [2] (hematocrit 3.50%), in test [2] (hematocrit 7%) and in test [2] (hematocrit 14%) were 1.18 pmol, 2.18 pmol and 4.78 pmol, respectively. For the same substance, the “C-peptide binding by RBCs, MS” value is 1.63 pmol in test [2] (hematocrit 3.50%), 3.38 pmol in test [2] (hematocrit 7%) and 6.25 pmol in test [2] (hematocrit 14%). Also, the C-peptide bound in test [3] is listed as 2.0±0.1 attomoles of C-peptide per endothelial cell; in test [4], 2.68 attomoles of C-peptide per neutrophil.
